Data on ten compounds can be found in patent publication US20110065663A1, “ANTI-CANCER COMBINATION THERAPY” (Katholieke Universiteit Leuven, K.U. Leuven R&D, priority 2008, published 2011).

Read-outs that look alike come from different tables or passages of the source.

Type in all cases: cell-based, human
Test [1] concerns MCF-7/HYOR cells. Kind of test: Nucleotide incorporation assay, MCF-7/HYOR compared with MCF-7 cells. The note with it: 1 μCi radiolabeled compound; FIG. 4. As for the experimental part:
MCF-7 and MCF-7/HYOR cells were seeded at 10,000 cells/cm. After 48 hours, cells were treated with 1 μCi of ^3H-labeled nucleoside with or without 10 μM TPi. 16 h later, the medium was removed and the cells were washed twice with PBS. Next, the cells were trypsinized, transferred to Eppendorf tubes and centrifuged for 10 minutes at 1,400 rpm. The pellet was resuspended in 1 ml absolute ice-cold methanol and kept on ice for 20 minutes. After centrifugation for 20 minutes at 13,000 rpm the pellet was washed twice with methanol, resuspended in methanol and transferred to scintillation vials containing 9 ml of Ready safe liquid scintillation reagent (‘Hisafe 3’, Perkin Elmer, Waltham, Mass.). The radioactivity was measured by a Liquid scintillation analyzer (2300 TR, Packard, Canberra, Australia).

The subject of test [2] is MCF-7 cells. The test is described as follows: Tumor cell proliferation assay, uninfected MCF-7 cells. The note with it: for IC50: Homo sapiens, uninfected MCF-7; for Ratio (1)/(2) MCF-7: IC50 in the absence of TPi to IC50 in the presence of TPi. As for the experimental part: MCF-7 and MCF-7/HYOR cells were seeded in 48-well plates at 10,000 cells/cm^2. […] of the test compounds (5FU, 5′DFUR, CIdUrd, BrdUrd, IdUrd and TFT) with or without 10 μM TPi were added. The cells were incubated for another 4 days, trypsinized and counted by a Coulter counter (Analis, Suarlée, Belgium). In some experiments, the antibiotic plasmocin was added one or three days before addition of the test compounds.

Test [3] has as its system MCF-7/HYOR cells. The test is described as follows: Tumor cell proliferation assay, M. hyorhinis-infected MCF-7 cells. The note with it: for IC50: Homo sapiens, MCF7; for Ratio (1)/(2) MCF-7/HYOR: IC50 in the absence of TPi to IC50 in the presence of TPi; for Anti-proliferative activity in MCF-7/HYOR after three days pre-incubation with doxycycline / Anti-proliferative activity in MCF-7/HYOR after three days pre-incubation with plasmocin: 3 days. The protocol: Mycoplasma hyorhinis (ATCC 17981) was obtained from the American Type Culture Collection (ATCC, Manassas, Va.). The freeze-dried bacteria were reconstituted by adding 1 ml of DMEM. […] The co-culture of MCF-7 cells and M. hyorhinis was maintained under the same conditions as the uninfected MCF-7 cells. […] The cells were incubated for another 4 days, trypsinized and counted by a Coulter counter (Analis, Suarlée, Belgium).

Test [4] deals with MCF-7/HYOR cell cultures. The test is described as follows: Nucleoside metabolism experiments, distribution of drug-derived radiolabel in MCF-7/HYOR cell cultures. The note with it: MCF-7/HYOR. The protocol:
Next, the cells were trypsinized, transferred to Eppendorf tubes and centrifuged for 10 minutes at 1,400 rpm. The pellet was resuspended in 1 ml absolute ice-cold methanol and kept on ice for 20 minutes. After centrifugation for 20 minutes at 13,000 rpm the pellet was washed twice with methanol, resuspended in methanol and transferred to scintillation vials containing 9 ml of Ready safe liquid scintillation reagent (‘Hisafe 3’, Perkin Elmer, Waltham, Mass.). The radioactivity was measured by a Liquid scintillation analyzer (2300 TR, Packard, Canberra, Australia). […] Next, the cells were incubated in 0.5 ml absolute ice-cold methanol and kept on ice for 20 minutes. After centrifugation for 20 minutes at 13,000 rpm, the supernatant was subjected to HPLC analysis. […] The amount of compound incorporated into nucleic acids was measured as described above.

[5] abbreviates: MCF7, 96 h, no TPi, 4 days, read-out: IC50 MCF-7 As such.
The mark [6] stands for this setting: MCF7, with 10 μM TPi, read-out: IC50 MCF-7 +TPi (10 μM).
Setting [7] is: M. hyorhinis-infected MCF-7, no TPi, no plasmocin, read-out: IC50 MCF-7/HYOR As such.
Setting [8] is: M. hyorhinis-infected MCF-7, with 10 μM TPi, read-out: IC50 MCF-7/HYOR +TPi (10 μM).
Setting [9] is: plasmocin 25 μg/ml, 1 day pretreatment, read-out: IC50 MCF-7/HYOR +plasmocin (25 μg/ml) 1 day prior to addition of test compounds.
[10] abbreviates: plasmocin 25 μg/ml, 3 days pretreatment, read-out: IC50 MCF-7/HYOR +plasmocin (25 μg/ml) 3 days prior to addition of test compounds.

As for `O=c1[nH]cc(C(F)(F)F)c(=O)[nH]1` [TF-thymine], in test [1], the “Incorporation into nucleic acids, infected versus uninfected MCF-7 cells (in words)” value is “no difference”.

As for `O=c1ccn([C@H]2C[C@H](O)[C@@H](CO)O2)c(=O)[nH]1` [dUrd, 2′-deoxyuridine], the “Reduction of incorporation into nucleic acids in infected MCF-7/HYOR cells in comparison with uninfected MCF-7 cells” value in test [1] was determined as 3 fold.

As for `O=c1cc[nH]c(=O)[nH]1` [uracil], in test [1], the “Incorporation into nucleic acids, infected versus uninfected MCF-7 cells (in words)” value is on record as “no difference”.

Regarding `O=c1[nH]c(=O)n([C@H]2C[C@H](O)[C@@H](CO)O2)cc1I` [IdUrd, 5-iodo-2′-deoxyuridine], the IC50 is 1100 ± 260 nM in test [2] (setting [5]), 980 ± 390 nM in test [2] (setting [6]), 12000 ± 500 nM in test [3] (setting [7]) and 310 ± 50 nM in test [3] (setting [8]). Moreover, the “Ratio (1)/(2) MCF-7” value in test [2] was determined as 1.1. Moreover, the “Ratio (1)/(2) MCF-7/HYOR” value in test [3] amounted to 39.

Regarding `O=c1[nH]c(=O)n([C@H]2C[C@H](O)[C@@H](CO)O2)cc1Cl` [CldUrd, 5-chloro-2′-deoxyuridine], the IC50 in test [2] (setting [5]) amounted to 760 ± 190 nM; in test [2] (setting [6]), 640 ± 150 nM; in test [3] (setting [7]), 13000 ± 2870 nM; in test [3] (setting [8]), 1400 ± 700 nM. For the same compound, in test [2], the “Ratio (1)/(2) MCF-7” value was 1.2. Also, the “Ratio (1)/(2) MCF-7/HYOR” value in test [3] was determined as 9.3.

Regarding `O=c1[nH]cc(F)c(=O)[nH]1` [5FU, 5-fluorouracil], the IC50 in test [2] (setting [5]) stood at 810 ± 240 nM; in test [2] (setting [6]) it was 620 ± 290 nM; in test [3] (setting [7]), 750 ± 240 nM; in test [3] (setting [8]), 530 ± 250 nM; in test [3] (setting [9]) it was 740 ± 110 nM; in test [3] (setting [10]), 670 ± 110 nM. Besides, the “Ratio (1)/(2) MCF-7” value in test [2] is 1.3. The “Ratio (1)/(2) MCF-7/HYOR” value in test [3] stood at 1.4. For the same compound, the “Incorporation into nucleic acids, infected versus uninfected MCF-7 cells (in words)” value in test [1] is “no difference”.

Turning to `Nc1ccn([C@@H]2O[C@H](CO)[C@@H](O)[C@@H]2O)c(=O)n1` [araC, cytarabine], the IC50 in test [2] (setting [5]) was determined as 50 ± 4 nM; in test [2] (setting [6]), 48 ± 9 nM; in test [3] (setting [7]) it was 1200 ± 800 nM; in test [3] (setting [8]), 68 ± 3 nM. Besides, the “Ratio (1)/(2) MCF-7” value in test [2] was found to be 1.0. Besides, the “Ratio (1)/(2) MCF-7/HYOR” value in test [3] is 17. For the same compound, in test [3], the “Anti-proliferative activity in MCF-7/HYOR after three days pre-incubation with doxycycline” value was “restores”. For the same compound, in test [3] (plasmocin 25 μg/ml), the “Anti-proliferative activity in MCF-7/HYOR after three days pre-incubation with plasmocin” value is on record as “restores”.

Consider `Cc1c[nH]c(=O)[nH]c1=O` [thymine], for which the “Incorporation into nucleic acids, infected versus uninfected MCF-7 cells (in words)” value in test [1] is reported as “no difference”.

For `O=c1[nH]c(=O)n([C@H]2C[C@H](O)[C@@H](CO)O2)cc1Br` [BrdUrd, 5-bromo-2′-deoxyuridine], the IC50 in test [2] (setting [5]) stood at 590 ± 100 nM. In test [2] (setting [6]), the IC50 stood at 360 ± 10 nM. Moreover, in test [2], the “Ratio (1)/(2) MCF-7” value turned out to be 1.6. Besides, in test [3] (setting [7]), the IC50 is 8600 ± 1170 nM. The IC50 in test [3] (setting [8]) is 840 ± 240 nM. Besides, the IC50 in test [3] (setting [9]) came to 2220 ± 1100 nM. In addition, in test [3] (setting [10]), the IC50 is 740 ± 200 nM. Also, the “Ratio (1)/(2) MCF-7/HYOR” value in test [3] is 10. Further, the “Reduction of incorporation into nucleic acids in infected MCF-7/HYOR cells in comparison with uninfected MCF-7 cells” value in test [1] is 45 fold. Besides, in test [4] (1 μCi, 16 h), the “% of drug-derived radiolabel, In medium, Base” value was 49.5%; the “% of drug-derived radiolabel, In medium, Nucleoside” value came to 42.0%; the “% of drug-derived radiolabel, In the cytosol of the cells, 5′-diphosphate” value is recorded as 0.2%; the “% of drug-derived radiolabel, In the cytosol of the cells, 5′-monophosphate” value turned out to be 0.4%. Further, in test [4] (1 μCi, 16 h), the “% of drug-derived radiolabel, In the cytosol of the cells, 5′-triphosphate” value was determined as 0.2%; the “% of drug-derived radiolabel, In the cytosol of the cells, Nucleoside/nucleobase” value is given as 6.4%; the “% of drug-derived radiolabel, Incorporatio into DNA/RNA” value was found to be 1.4%. Further, in test [4] (in the presence of TPi), the “Share incorporated into the nucleic acids in the presence of TPi” value is given as “almost all”.

For the compound `Nc1nc(Cl)nc2c1ncn2[C@H]1C[C@H](O)[C@@H](CO)O1` [cladribine], the IC50 in test [2] (setting [5]) stood at 460 ± 150 nM; in test [2] (setting [6]), 390 ± 160 nM; in test [3] (setting [7]), 13000 ± 3000 nM; in test [3] (setting [8]), 780 ± 230 nM. The “Ratio (1)/(2) MCF-7” value in test [2] was determined as 1.2. In addition, the “Ratio (1)/(2) MCF-7/HYOR” value in test [3] stood at 17. In test [3] (M. hyorhinis infection), the “Reduction of cytostatic activity in infected MCF-7/HYOR compared to control MCF-7 cells” value is recorded as “about 30 fold”. Also, the “Anti-proliferative activity in MCF-7/HYOR after three days pre-incubation with doxycycline” value in test [3] is given as “restores”. Further, the “Anti-proliferative activity in MCF-7/HYOR after three days pre-incubation with plasmocin” value in test [3] (plasmocin 25 μg/ml) is given as “restores”.
